Laboratory results as given in publication PMC11811597, “Phenomics‐Based Discovery of Novel Orthosteric Choline Kinase Inhibitors” (Angewandte Chemie (International Ed. in English), 2025).
“Also recorded” adds a separate entry of the source. Read-outs that look alike come from different tables or passages of the source.

How the values were obtained:
[1] = tested on: MCF7, MDA‐MB‐231, HEK293, HepG2, U2OS and K562 cells; assay: 72 h cell viability assay (Cell Titer-Glo); assay type: cell-based, human; conditions: 0-50 μM
From the text: We compared morphological fingerprints of multiple parameters to assess overall biological similarity (Biol. Sim.) (Figure 1B).
A-366 and UNC0638 were purchased from Tocris. ARIAD and V-11-07-11 were purchased from Wuxi Apptec. UNC0737 and UNC0965 were synthesised as previously described.[1] Hemicholinium-3 and pyruvate kinase/lactic dehydrogenase enzymes were purchased from Sigma Aldrich. Aqueous and organic solvents were MS-grade and acquired by Sigma Aldrich unless stated otherwise.
MDA-MB-231, MCF7 and HEK293 cells were cultured in DMEM (Gibco, #11965092) supplemented with 10% FBS. K562 were cultured in IMDM (Gibco, #12440053) supplemented with 10% FBS. HepG2 were cultured in MEM (Gibco, #11095080) supplemented with 10 % FBS. […]
cultured in McCoy’s 5A (Sigma, M8403) supplemented with 10 % FBS and 1x GlutaMAX (Gibco, #35050061). Cells were maintained at 37 °C in a humidified 5% CO2 atmosphere. Peripheral blood mononuclear cells (PBMC) were isolated from healthy blood donors by density centrifugation.
MDA-MB-231, MCF7 or HEK293 cells (7.5 × 10^4 cells/mL) were each plated into x1 white 384-well polystyrene plate (Greiner Bio-One Ltd). A-366, […] and UNC0737 were directly added to each well of the cell line plates, at final concentrations 0-50 μM and incubated for 72 h at 37 °C/ 5% CO2.
Cell Titer-Glo® reagent was added to each well and total luminescence readings were performed within 15 min using the PHERAstar FSX (BMG Labtech). The cell viability results were normalised to the DMSO control and plotted using the sigmoidal dose-response (variable slope) equation in […]
Chemical Proteomics Drug Pulldown
For lysate generation MCF7 cells were grown until approximately 80% confluency before being pelleted and washed with PBS. […]
MDA-MB-231, […], HepG2, U2OS and K562 cells following treatment with A-366, UNC0638 and UNC0737 after 72 h measured by Cell Titer Glo assay (n=3). […]

[2] = tested on: choline metabolism in MCF7 cells; assay: NMR choline metabolite analysis; assay type: cell-based, human; conditions: for extracellular choline uptake: dose-dependent
Method: NMR Choline Metabolite Analysis
Sample preparation for the quantification of metabolites by nuclear magnetic resonance (NMR) spectroscopy was performed as described previously.[13] Briefly, 0.3 mL of cell culture medium (conditioned medium) was collected from each sample and mixed with 2 volumes of pre-chilled methanol (< -70 °C), vortexed for 30 s and placed on dry ice for at least 30 min. Following centrifugation for 20 min at 18100 × g and 0 °C, the supernatant extract of culture medium was dried and stored until NMR analysis. The remaining culture medium from each sample was discarded and cells were washed once with PBS (37 °C), and quenched with liquid nitrogen. Polar metabolites were extracted with 1.4 mL of an ice-cold solution of 67.5:7.5:25 (v/v/v) of methanol/chloroform/water.
Samples were centrifuged at 18100 × g for 15 min at 0 °C and the supernatant consisted of intracellular polar metabolites was collected and dried under nitrogen gas stream. The remaining cell pellets were used for protein mass quantification using the Pierce™ BCA Protein Assay Kit (Thermo Scientific™).
Samples from both cell culture medium and cell extracts were reconstituted in 220 µL of 50 mM phosphate buffer (pH 7.4) solution in deuterated water containing 0.05 mM trimethylsilyl propionic-d4-sodium salt (TSP-d4, Cambridge Isotope Laboratories, Inc.) as internal standard used for NMR referencing and quantification. One NMR experiment (pulse sequence: noesygppr1d; Bruker Biospin) was collected for each sample in a 14.1 T (600 MHz for 1H) Bruker Avance Neo NMR. All recorded NMR spectra were imported in Chenomx NMR suite 9.0 (Chenomx NMR suite, v9.0) for the quantification of choline, phosphocholine sn-glycero-phosphocholine (GPC) and betaine. Quantitative data (nmoles or μM) were then normalized to the amount of total protein mass (mg) of each sample. […]

CHKA = CHKA (Homo sapiens, UniProt P35790); assay: Differential scanning fluorimetry (DSF); assay type: binding; set-up: host or cells: E. coli BL21(DE3); conditions: 10 µM compound, 2 µM CHKA
Method: mM NaCl, 5% glycerol, 500 mM imidazole, 0.5% TCEP, pH 7.5), the eluent was concentrated, and further purified by size exclusion chromatography using a HiLoad 16/600 Superdex S200 column (Cytiva) pre-equilibrated in Buffer C (20 mM HEPES, 150 mM NaCl, pH 7.5). The resulting protein purity was assessed by SDS-PAGE, and protein identity was confirmed by tryptic digest analysis. Protein concentration was determined to be 35.5 mg/mL, and was calculated using a theoretical molar extinction coefficient of 58830 M-1cm-1 as determined by ProtParam.[5] […]
Differential Scanning Fluorimetry (DSF)
DSF buffer (20 mM HEPES, 150 mM NaCl, 0.5 mM TCEP, pH 7.5) containing 5x SYPRO Orange (Thermo Fisher Scientific) and CHKA (2 µM) was incubated with 10 µM compound at 2% DMSO final concentration in a 96-well semi-skirted real time PCR plate. Fluorescence was measured in each well over a 40-80 °C gradient using a Stratagen MX3005p qPCR instrument (Agilent Technologies). […]

CHKA, sequence (P35790 75-457 limits assumed): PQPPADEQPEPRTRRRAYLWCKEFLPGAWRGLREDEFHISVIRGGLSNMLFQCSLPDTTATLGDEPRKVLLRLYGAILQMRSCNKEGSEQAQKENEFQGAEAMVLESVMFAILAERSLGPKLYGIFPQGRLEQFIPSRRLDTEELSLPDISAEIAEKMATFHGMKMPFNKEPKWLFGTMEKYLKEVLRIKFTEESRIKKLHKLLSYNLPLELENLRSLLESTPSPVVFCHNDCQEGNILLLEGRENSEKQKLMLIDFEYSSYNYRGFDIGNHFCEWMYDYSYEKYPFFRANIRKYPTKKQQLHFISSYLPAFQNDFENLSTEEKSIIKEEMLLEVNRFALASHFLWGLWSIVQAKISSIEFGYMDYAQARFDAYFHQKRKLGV

Row | SMILES | effect on cell viability [1] | betaine [2] | intracellular choline levels [2] | phosphocholine (pCho) formation/levels relative to control [2] | sn‐glycerophosphocholine (GPC) [2] | extracellular choline uptake [2] | thermal stabilisation of CHKA (DSF) (CHKA) | phosphocholine (pCho) formation/levels relative to control ([2]; listed as UN0737)
1 | COc1cc2c(NC3CCN(C(C)C)CC3)nc(C3CCCCC3)nc2cc1OCCCN1CCCC1 [UNC0638] | antiproliferative effects | did not observe changes | not significantly affected | reduction of pCho formation; also recorded: significantly reduced | not significantly affected | decrease in extracellular choline uptake | thermal stabilisation | 
2 | COc1cc2c(N(C)C3CCN(C(C)C)CC3)nc(C3CCCCC3)nc2cc1OCCCN1CCCC1 [UNC0737] | antiproliferative effects | did not observe changes | not significantly affected | reduction of pCho formation | not significantly affected | decrease in extracellular choline uptake | thermal stabilisation | significantly reduced
